Results as given in publication PMC6451005, “PCC0208027, a novel tyrosine kinase inhibitor, inhibits tumor growth of NSCLC by targeting EGFR and HER2 aberrations” (Scientific Reports, 2019).
Where two headings read alike, the source gives them in different places. Marks after values point to notes of the source that are not given here. Values belong to the compound of their own block, whether it stands above or below them.

Legend:
[1] = tested on: Calu-3 cells; assay: Cell growth inhibition assay (MTT); format: cell-based; details: Homo sapiens, read-out: IC50 cell viability
Protocol: (§1) Human NSCLC cells NCI-H1975, HCC827, Calu-3 and A549were obtained from the Cell Culture Center of the Institute of Basic Medical Sciences, Chinese Academy of Medical Sciences. NCI-H1781 cell line was purchased from Cobioer Biosciences Co., Ltd. With the exception of Calu-3, all cell lines were cultured in RPMI-1640 medium (Gibco, USA) supplemented with 10% fetal bovine serum (FBS) (Gibco, USA). Calu-3 was maintained in Minimum Essential Medium (MEM) supplemented with 10% FBS (Gibco, USA), 5% 100 mM Sodium Pyruvate (Gibco, USA), and 5% Non-Essential Amino Acids Solution (NEAA; Gibco, USA). All cells were incubated at 37 °C with 5% CO2 in air.
(§2) According to the previous report, 5 × 10^3 cells/100 μL were seeded in culture medium in every well in a 96-well plate for 24 hours. […] After 72 h of treatment, MTT (Beyotime Biotechnology, China) was added at a final concentration of […] and incubated for 3 hours. Following that, DMSO was used to dissolve the formazan product and the Molecular Devices SpectraMax M5 microplate reader (Molecular Devices, USA) was used to measure absorbance at 570 nm and IC50 was calculated.

[2] = tested on: NCI-H1781 cells; assay: Cell growth inhibition assay (MTT); format: cell-based; details: Homo sapiens, read-out: IC50 cell viability
Protocol: as §1, §2

[3] = tested on: NCI-H1975 cells; assay: Cell growth inhibition assay (MTT); format: cell-based; details: Homo sapiens, read-out: IC50 cell viability
Protocol: as §1, §2

[4] = tested on: A549 cells; assay: Cell growth inhibition assay (MTT); format: cell-based, Human; details: Homo sapiens, read-out: IC50 cell viability
Protocol: as §1, §2

[5] = tested on: HCC827 cells; assay: Western blot assay; format: cell-based, Human; details: 24 h, Western blotting
Protocol: The BCA reagent kit (Beyotime Biotechnology) was used to measure protein content. The cell extracts (50 μg protein) were loaded onto a 4–20% ExpressPlus™ PAGE pre-cast gel (GenScript, China) for electrophoresis before transferring to a PVDF membrane. The membranes were blocked with 5% skimmed milk (prepared using Tris-buffered saline containing 0.05% Tween-20) before incubation with primary antibodies at 4 °C overnight. The membranes were then incubated with HRP-conjugated secondary antibodies at room temperature. The Alphaview SA system and software (version 3.4.0, ProteinSimple, USA) was used for quantitative analysis of the optical density of the bands.

[6] = tested on: HCC827 xenograft; assay: Nude mouse xenograft model
[7] = tested on: NCI-H1975 xenograft; assay: Nude mouse xenograft model; details: for Body weight (g) Begin / IR (%) inhibition rate of tumor growth (tumor weight) / Body weight (g) End: NCI-H1975 xenograft; for IR (%) inhibition rate of tumor growth (tumor weight): 15 days
[8] = molecular target: T1, Her2 Wild Type (Homo sapiens, UniProt P04626); assay: In vitro kinase assay; format: biochemical; details: WT; n = 2
T1 construct: purchased Invitrogen (Shanghai) Co., Ltd

[9] = molecular target: T2, Her4 Wild Type (Homo sapiens, UniProt Q15303); assay: In vitro kinase assay; format: biochemical; details: WT; n = 2
T2 construct: purchased Invitrogen (Shanghai) Co., Ltd

[10] = tested on: HCC827 cells; assay: Cell growth inhibition assay (MTT); format: cell-based; details: Homo sapiens; HCC827, EGFR (Del E746_A750); MTT, 72 h; mean ± s.d. (n = 3); read-out: IC50 cell viability
[11] = tested on: Calu-3 xenograft; assay: Nude mouse xenograft model; details: Calu-3 xenograft

T2 sequence (Q15303 26-1308): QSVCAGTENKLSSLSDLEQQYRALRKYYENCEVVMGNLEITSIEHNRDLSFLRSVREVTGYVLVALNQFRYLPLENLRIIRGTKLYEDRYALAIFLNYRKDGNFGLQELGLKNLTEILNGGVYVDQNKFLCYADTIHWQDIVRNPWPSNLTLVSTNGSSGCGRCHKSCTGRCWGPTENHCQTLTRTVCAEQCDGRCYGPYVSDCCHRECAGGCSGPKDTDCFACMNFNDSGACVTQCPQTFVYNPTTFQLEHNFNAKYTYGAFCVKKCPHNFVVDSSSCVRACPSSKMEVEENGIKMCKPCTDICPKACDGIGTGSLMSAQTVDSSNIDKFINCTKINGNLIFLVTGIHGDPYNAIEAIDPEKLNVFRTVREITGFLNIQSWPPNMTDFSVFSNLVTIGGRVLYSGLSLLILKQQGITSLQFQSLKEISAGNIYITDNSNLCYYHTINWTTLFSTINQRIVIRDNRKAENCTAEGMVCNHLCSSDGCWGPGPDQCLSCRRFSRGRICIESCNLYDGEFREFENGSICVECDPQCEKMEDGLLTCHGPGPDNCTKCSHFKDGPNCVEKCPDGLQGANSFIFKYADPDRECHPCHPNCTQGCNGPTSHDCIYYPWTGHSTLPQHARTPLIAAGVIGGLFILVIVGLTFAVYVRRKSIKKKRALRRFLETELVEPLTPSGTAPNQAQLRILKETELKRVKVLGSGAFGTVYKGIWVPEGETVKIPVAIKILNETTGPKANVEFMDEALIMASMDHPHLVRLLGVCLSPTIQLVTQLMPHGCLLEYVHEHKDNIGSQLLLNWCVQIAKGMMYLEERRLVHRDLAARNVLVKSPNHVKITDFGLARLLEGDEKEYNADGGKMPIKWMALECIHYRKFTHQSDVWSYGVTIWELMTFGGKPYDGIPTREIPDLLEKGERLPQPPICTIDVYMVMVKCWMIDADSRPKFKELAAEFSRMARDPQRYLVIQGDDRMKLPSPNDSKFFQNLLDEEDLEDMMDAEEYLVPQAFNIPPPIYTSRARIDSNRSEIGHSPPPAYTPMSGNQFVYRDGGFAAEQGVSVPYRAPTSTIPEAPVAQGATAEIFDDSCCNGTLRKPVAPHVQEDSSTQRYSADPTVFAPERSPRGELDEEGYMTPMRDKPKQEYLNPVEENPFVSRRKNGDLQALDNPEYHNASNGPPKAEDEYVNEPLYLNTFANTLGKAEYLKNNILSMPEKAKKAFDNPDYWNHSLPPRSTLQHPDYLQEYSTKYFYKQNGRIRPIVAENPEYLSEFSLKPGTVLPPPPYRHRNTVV
T1 sequence (P04626 23-1255): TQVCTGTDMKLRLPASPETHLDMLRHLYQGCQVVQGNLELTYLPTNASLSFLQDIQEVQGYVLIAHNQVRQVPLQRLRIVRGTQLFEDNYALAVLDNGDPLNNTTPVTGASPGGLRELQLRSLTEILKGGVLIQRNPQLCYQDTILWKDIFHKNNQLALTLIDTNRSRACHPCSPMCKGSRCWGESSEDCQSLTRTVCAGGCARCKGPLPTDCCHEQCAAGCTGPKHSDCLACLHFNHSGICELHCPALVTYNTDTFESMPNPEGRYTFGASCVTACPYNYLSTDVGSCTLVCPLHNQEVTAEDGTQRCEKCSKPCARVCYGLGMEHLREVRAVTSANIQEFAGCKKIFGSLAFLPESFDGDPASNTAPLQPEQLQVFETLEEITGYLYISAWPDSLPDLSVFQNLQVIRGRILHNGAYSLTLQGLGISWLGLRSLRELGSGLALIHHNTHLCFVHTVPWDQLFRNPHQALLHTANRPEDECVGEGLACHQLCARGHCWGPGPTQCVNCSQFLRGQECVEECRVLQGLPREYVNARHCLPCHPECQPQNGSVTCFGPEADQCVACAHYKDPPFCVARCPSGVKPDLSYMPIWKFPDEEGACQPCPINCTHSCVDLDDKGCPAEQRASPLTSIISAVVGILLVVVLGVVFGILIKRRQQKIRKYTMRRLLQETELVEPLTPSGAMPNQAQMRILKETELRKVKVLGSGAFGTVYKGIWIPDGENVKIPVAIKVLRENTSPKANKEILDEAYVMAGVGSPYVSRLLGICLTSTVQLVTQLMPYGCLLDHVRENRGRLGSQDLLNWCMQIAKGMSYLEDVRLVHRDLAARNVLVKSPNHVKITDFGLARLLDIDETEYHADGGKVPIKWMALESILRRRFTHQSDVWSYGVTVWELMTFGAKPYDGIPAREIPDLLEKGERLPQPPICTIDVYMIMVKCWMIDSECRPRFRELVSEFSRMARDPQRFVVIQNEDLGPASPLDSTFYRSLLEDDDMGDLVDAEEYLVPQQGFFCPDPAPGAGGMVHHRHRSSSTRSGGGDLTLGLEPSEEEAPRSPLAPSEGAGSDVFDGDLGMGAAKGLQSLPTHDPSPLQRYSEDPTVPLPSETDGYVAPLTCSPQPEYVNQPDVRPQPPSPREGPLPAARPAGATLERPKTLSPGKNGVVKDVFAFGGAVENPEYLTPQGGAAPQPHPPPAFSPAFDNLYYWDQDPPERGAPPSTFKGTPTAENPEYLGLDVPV

IC50 ([1]; Calu-3, 72 h): > 1000 nM | IC50 ([2]; NCI-H1781, 72 h): > 1000 nM | IC50 ([3]; NCI-H1975, 72 h): > 1000 nM | IC50 ([4]; A549, 72 h): > 1000 nM | decrease of body weight of animals ([6]; HCC827 xenograft models): more than 20%
SMILES: C#Cc1cccc(Nc2ncnc3cc(OCCOC)c(OCCOC)cc23)c1 [Erlotinib]
Phosphorylation of EGFR and its downstream AKT and ERK [5]: inhibited | number of p-EGFR and Ki67 positive cells in tumor tissues ([6]; HCC827 xenograft model, IHC, vs control group): strongly decreased | Body weight (g) Begin ([6]; HCC827 xenograft, 100 mg/kg/day group): 17.65 ± 0.95 g | Body weight (g) End ([6]; HCC827 xenograft, 100 mg/kg/day oral): 13.82 ± 0.75 g | tumor growth (in words) ([7]; NCI-H1975 xenograft models, vs. control group): did not inhibit tumor growth | Body weight (g) Begin ([7]; 100 mg/kg/day group): 16.63 ± 1.02 g | IR (%) inhibition rate of tumor growth (tumor weight) ([7]; 100 mg/kg/day oral): 29.78% | Body weight (g) End ([7]; 100 mg/kg/day oral): 14.54 ± 1.10 g

IC50 [8]: 0.07 nM | IC50 [9]: 0.18 nM | IC50 [10]: 1.72 ± 0.32 nM | IC50 ([1]; Calu-3, HER-2 (WT, amplified), MTT, 72 h, mean ± s.d. (n = 3)): 2.47 ± 0.52 nM | IC50 ([2]; NCI-H1781, HER-2 (G776V, Cins), MTT, 72 h, mean ± s.d. (n = 3)): 6.17 ± 0.42 nM | IC50 ([3]; NCI-H1975, EGFR (L858R/T790M), MTT, 72 h, mean ± s.d. (n = 3)): 8.78 ± 3.03 nM | IC50 ([4]; A549, K-ras mutation (G12S), MTT, 72 h, mean ± s.d. (n = 3)): > 1000 nM
SMILES: C=CC(=O)N1CCC(Oc2cc3c(Nc4ccc(Cl)c(Cl)c4F)ncnc3cc2OC)CC1 [Poziotinib]
Body weight (g) Begin ([6]; HCC827 xenograft, 1 mg/kg/day group): 17.55 ± 0.96 g | IR (%) inhibition rate of tumor growth (tumor weight) ([6]; HCC827 xenograft, 1 mg/kg/day oral, 15 days): 93.25^*** % | Body weight (g) End ([6]; HCC827 xenograft, 1 mg/kg/day oral): 17.21 ± 0.90 g | Body weight (g) Begin ([7]; 2.5 mg/kg/day group): 16.44 ± 0.69 g | IR (%) inhibition rate of tumor growth (tumor weight) ([7]; 2.5 mg/kg/day oral): 98.18^*** % | Body weight (g) End ([7]; 2.5 mg/kg/day oral): 14.62 ± 0.67 g | Body weight (g) Begin ([11]; 2.5 mg/kg/day group, begin): 17.72 ± 0.73 g | IR (%) inhibition rate of tumor growth (tumor weight) ([11]; 2.5 mg/kg/day oral, 15 days): 77.16^*** % | Body weight (g) End ([11]; 2.5 mg/kg/day oral, end): 16.36 ± 0.92 g
